Measured values taken from the METLIN SMRT retention time set (Domingo-Almenara et al. 2019).

Assay: gradient 5% acetonitrile 3 min, to 50% in 2 min, to 85% in 15 min, held 3 min, 100 µL/min
Conditions: column: Zorbax Extend-C18 2.1 x 50 mm; eluents: water / acetonitrile, 0.1% formic acid
Method in brief: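 The system's dead and dwell volumes were 40 μL and 900 μL, with a Zorbax Extend-C18 column (2.1 × 50 mm, 1.8 μm) run at 100 μL/min in water and acetonitrile containing 0.1% formic acid each. Pure standards were analyzed in mixtures of ~100 molecules by HPLC–quadrupole time-of-flight mass spectrometry in positive and negative ionization mode. Retention time was assigned from computationally picked, manually inspected adduct peaks.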

In order of falling RP-LC retention time:
1. Fc1cccc(-c2noc(Cc3nc(-c4ccc(Cl)cc4)cs3)n2)c1  1330 s
2. CC(C)(C)c1ccc(S(=O)(=O)N2CCCCC2C(=O)N2CCN(c3ccccc3F)CC2)cc1 (stereo unspecified)  1280 s
3. Cc1sc(-c2cc(C(F)(F)F)on2)cc1S(=O)(=O)N1CCc2ccccc21  1270 s
4. CCc1nc(-c2cc(S(=O)(=O)N3CCN(c4ccc(F)cc4)CC3)c(C)s2)cs1  1220 s
5. Cc1nc2c(sc3nc(-c4ccccc4)ccc32)c(=O)n1CC(=O)Nc1cccc(C(C)C)c1  1210 s
6. O=C(C1CCCN(c2nccnc2Oc2ccccc2)C1)N1CCN(c2cccc(Cl)c2)CC1 (stereo unspecified)  1180 s
7. Cc1nc(-c2cccnc2)sc1C(=O)/C=C/c1ccc(Cl)cc1Cl  1150 s
8. COc1ccc(-c2noc(-c3ccc(NC(=O)c4cccs4)cc3)n2)cc1  1140 s
9. O=C(NC1CCCC1)c1cc2sccc2n1Cc1ccc(F)cc1  1080 s
10. Cc1ccc2nc(-c3cccnc3)cc(C(=O)Nc3nc(-c4ccccc4)c(C)s3)c2c1  1070 s
11. Cn1cc(S(=O)(=O)N2CCC(C(=O)NCc3ccccc3)CC2)cc1C(=O)N1CCCC1  1040 s
12. CCOC(=O)COC(=O)c1cn(-c2cccc(F)c2)c(=O)c2ccccc12  1020 s
13. CCCNC(=O)c1cc2c(s1)N(CC1CC1)CCCC2  1020 s
14. CCCc1noc(-c2ccnc(-n3cnc(C(=O)NC4CCCCC4)c3)c2)n1  973 s
15. CC(C)c1nn2c(S(=O)(=O)NCc3cccs3)c(C(C)C)nc2s1  966 s
16. Fc1ccc(Cn2cc(-c3noc(-c4ccc5cc[nH]c5c4)n3)nn2)cc1  952 s
17. O=C(CCn1c(=O)oc2ccccc21)NCc1ccc2c(c1)OCO2  941 s
18. CC(C)n1cc(S(=O)(=O)NCc2cccc(F)c2)c2cccnc21  926 s
19. COc1ccc(-c2cc(C(=O)N3CCN(S(=O)(=O)c4ccc(C)cc4C)CC3)[nH]n2)cc1  924 s
20. CCCn1cc(CCNS(=O)(=O)c2ccc(C)cc2C)c2cccnc21  924 s
21. Cc1cc2nn(CC(=O)N3CCCC3)c(=O)n2c(Nc2ccc(C)c(F)c2)n1  922 s
22. O=C1COc2ccc(S(=O)(=O)N3CCC(C(=O)Nc4ccc(OC(F)(F)F)cc4)CC3)cc2N1  909 s
23. CCn1c(=O)oc2cc(-c3noc(-c4ccnn4C)n3)ccc21  903 s
24. O=C(c1ccc(F)cc1F)N1CCN(c2cc(-c3ccc(Cl)cc3)[nH]n2)CC1  894 s
25. O=C(CN1C(=O)CCCc2cc(S(=O)(=O)N3CCCCC3)ccc21)Nc1ccccc1  885 s
26. CCC(=O)N1c2ccc(S(=O)(=O)CCC(=O)NCCc3ccc(C)cc3)cc2CC1C (stereo unspecified)  874 s
27. COC(=O)c1ccc(N2C=C(C#N)S(=O)(=O)c3c(F)cccc32)cc1  858 s
28. COc1ccc(-c2noc(C3CCCN3C(=O)Nc3cccc(C)c3C)n2)cc1 (stereo unspecified)  858 s
29. Cc1ccc(-c2nc3ncccn3c2Nc2ccc(C)c(C)c2)cc1  848 s
30. Cn1cccc1C(=O)N1CC(c2nc(CCOC3CCCC3)no2)C1  845 s
31. Cc1ccc(CN2C(=O)CN(S(C)(=O)=O)CC2(C)C(=O)NCc2ccc(F)cc2)cc1 (stereo unspecified)  836 s
32. COc1ccc2c(c1)C1(CCN(S(=O)(=O)c3cccc(F)c3)C1)C(=O)N2 (stereo unspecified)  835 s
33. CCc1cc(=O)n(CC(=O)Nc2ccccc2Cl)c(N2CCOCC2)n1  830 s
34. CCOc1ccccc1CNC(=O)CCc1nnc2c3cc(-c4ccc(F)cc4)nn3ccn12  830 s
35. O=C(Cn1ccc2ccccc21)NCc1c(F)cccc1F  826 s
36. COc1ccc(Cc2nc(-c3ccc4nnc(C)n4c3)no2)cc1Cl  822 s
37. COc1ccc(-c2nc3cnccn3c2Nc2cccc(Cl)c2)cc1OC  817 s
38. CCOc1nc2ccccc2nc1N1CCCC(C(=O)Nc2ccc(F)c(Cl)c2)C1 (stereo unspecified)  797 s
39. CC(=O)c1ccc(NS(=O)(=O)N2CCC(C)CC2)cc1  780 s
40. CCc1nc2cc(N3CCC(C(=O)NC(C)CC)CC3)cnc2nc1CC (stereo unspecified)  758 s
41. O=C(Cn1nc2c3cc(F)ccc3ncn2c1=O)Nc1ccc(Br)cc1  745 s
42. Cc1nc(-c2cc(S(=O)(=O)N3CCC(C(=O)N4CCOCC4)CC3)c(C)s2)no1  742 s
43. O=C(CN1CCCc2nc(C3CC3)ncc2C1=O)NC1CCCCC1  723 s
44. Cc1c(-c2ccc(O)cc2)n(Cc2ccc(OCCN3CCCCCC3)cc2)c2ccc(O)cc12  720 s
45. CCCS(=O)(=O)N1CCc2ccc(NC(=O)c3ccno3)cc2C1  716 s
46. COc1ccccc1-c1nnc(NC(=O)COc2ccccc2)o1  707 s
47. N#Cc1cccc(NC(=O)Cn2c(=O)cc(C(=O)N3CCCC3)c3ccccc32)c1  690 s
48. COc1ccccc1NC(=O)C1CCN(c2cc(N3CCSCC3)ncn2)CC1  684 s
49. O=C(CC1CCCCC1)N1CCN(c2nc(CN3CCCCC3)cs2)CC1  675 s
50. CC(C)C(NC(=O)c1ccsc1)C(=O)Nc1nc2ccccc2[nH]1 (stereo unspecified)  666 s
51. CCCN(C)C(=O)COc1ccc(NC(=O)C2CC2)cn1  666 s
52. CCCc1cc(N2CCN(C(=O)Cc3ccsc3)CC2)nc2nnc(CC)n12  649 s
53. Cc1cccc(-c2nn3c(N4CCN(c5ccccn5)CC4)cc(C)nc3c2C)c1  648 s
54. CCC(=O)N1CCc2cc(N3CC(C(=O)NC(C)C)CC3=O)ccc21 (stereo unspecified)  647 s
55. O=C(NCc1cc(F)ccc1F)C1CCc2nc(N3CCCC3)ncc2C1 (stereo unspecified)  646 s
56. CCN1CCCC1CNC(=O)c1nnc(-c2ccc(S(=O)(=O)N3CCCCC3)cc2)o1 (stereo unspecified)  645 s
57. CC(=O)Oc1cc2c(C(=O)NCc3ccccn3)c(C)oc2c2ccccc12  638 s
58. CCNC(=O)c1cn(-c2ccc(SCC(=O)Nc3ccc4c(c3)OCCO4)nn2)cn1  637 s
59. CCCCC(=O)Nc1ccc2c(c1)nc(CN1CCN(C(=O)c3ccco3)CC1)n2C  619 s
60. CC(C)NC[C@@H](C(=O)N1CCN(c2ncnc3c2[C@H](C)C[C@H]3O)CC1)c1ccc(Cl)cc1  610 s
61. Cc1nc2ccccn2c(=O)c1Cc1nnc(SCc2cc(=O)c3cccc(C)c3[nH]2)n1C  599 s
62. CCOC(=O)C1=C(CN2CCN(c3ccccn3)CC2)NC(=O)NC1c1ccccc1 (stereo unspecified)  596 s
63. CCOc1ccccc1NC(=O)N1CCC(CN2CCC(C)CC2)CC1  582 s
64. O=C(O)Cn1ncc2ccccc2c1=O  572 s
65. CCCN(C)CC1(O)CCC2(CCN(Cc3ccc(F)cc3)CC2)CC1  547 s
66. CCN(CC)c1ccc(CNC(=O)C2CCc3nc(N4CCCCC4)ncc3C2)cc1 (stereo unspecified)  546 s
